Measured values as given in patent US7183274B2, “Piperidine-2,6-diones heterocyclically substituted in the 3-position” (Gruenenthal GmbH, priority 2001, dated 2007).
≈ marks a conversion by molar mass, not a printed value.

Legend:
[1] = tested on: IL-12 production of LPS-activated monocytes; experiment: Inhibition of IL-12 production of LPS-activated human monocytes (ELISA of culture supernatant); assay type: cell-based; settings: 20 μg/ml LPS from E. coli, 24 hours; for IC50: Monocyte
Description: (§1) Stimulation of human monocytes with lipopolysaccharide for the secretion of IL-10 and IL-12:
(§2) Human monocytes were isolated from peripheral blood mononuclear cells (PBMC) that had been obtained by means of a ficoll density gradient centrifugation from heparinized full blood. For this purpose the PBMC were incubated with a monoclonal antibody that is directed against the monocyte-specific surface molecule CD14 and on which are coupled superparamagnetic microbeads (Miltenyi Biotech, Bergisch Gladbach). For the positive selection of the marked monocytes from the cell mixture of the PBMC, the total cell suspension was added to a column with ferromagnetic carrier matrix and this was placed in a magnetic field. In this way the cells that were loaded with microbeads were bound to the carrier matrix while unmarked cells passed through the column and were discarded. After removing the matrix from the magnetic field the antibody-loaded cells were eluted by rinsing the now demagnetized column with buffer. The purity of the CD14-positive monocyte population obtained in this way is about 95–98%. These monocytes were incubated for 1 hour at 37° C. and 5% CO2 in a density of 10^6 cells/ml culture medium (RPMI, supplemented with 10% fetal calf serum) with the test substances dissolved in DMSO. 20 μg/ml LPS from E. coli were then added. After 24 hours cell-free culture supernatants were taken and tested for their content of IL-10 as well as IL-12.
(§3) The concentration of IL-12 and IL-10 in the cell culture supernatants was determined by means of sandwich ELISAs using two anti-IL-12 and IL-10 monoclonal antibodies (Biosource Europe, Fleurus, Belgium). A reference standard curve with human IL-10 and IL-12 was included. The detection limit of the IL-12 ELISA was 10 pg/ml, and that of the IL-10 ELISA was 15 pg/ml.

[2] = tested on: IL-10 production of LPS-activated monocytes; experiment: Increase in IL-10 production of LPS-activated human monocytes (ELISA of culture supernatant); assay type: cell-based; settings: 20 μg/ml LPS from E. coli, 24 hours
Description: as §1, §2, §3

Row | SMILES | Inhibition of IL-12 Production Maximum (%) [1] [%] | IC50 [1] [µg/mL] | Increase in IL-10 Production Maximum (%) [2] [%] | Inhibition of IL-12 Production IC50 [1] [µg/mL]
1 | Br.O=C1CCC(N2C=Nc3cc(Cl)ccc3C2)C(=O)N1 (stereo not drawn) [Example 1, 3-(7-chloro-4H-quinazolin-3-yl)piperidine-2,6-dione; hydrobromide] | 99 | 0.005 | 360 | 
2 | Br.O=C1CCC(N2C=Nc3ccccc3C2)C(=O)N1 (stereo not drawn) [Example 3, 3-(4H-quinazolin-3-yl)piperidine-2,6-dione; hydrobromide] | 98 | 0.01 | 230 | 
3 | O=C1CCC(N2C=Nc3cccc(Cl)c3C2)C(=O)N1 (stereo not drawn) [Example 7a, 3-(5-chloro-4H-quinazolin-3-yl)piperidine-2.6-dione] | 98 |  | 365 | 0.001
4 | Cl.O=C1CCC(N2C=Nc3cc(F)ccc3C2)C(=O)N1 (stereo not drawn) [Example 7f, 3-(7-fluoro-4H-quinazolin-3-yl)piperidine-2,6-dione; hydrochloride] | 98 | 0.0008 | 420 | 
5 | O=C1CCC(N2C=Nc3cccc(F)c3C2)C(=O)N1 (stereo not drawn) [Example 7h, 3-(5-fluoro-4H-quinazolin-3-yl)piperidine-2.6-dione] | 97 |  | 316 | 0.006
6 | O=C1CCC(N2C=Nc3cccc([N+](=O)[O-])c3C2)C(=O)N1 (stereo not drawn) [Example 7i, 3-(5-nitro-4H-ginazolin-3-yl)piperidine-2,6-dione] | 96 |  | 211 | 0.036
7 | Cc1cccc2c1CN(C1CCC(=O)NC1=O)C=N2 (stereo not drawn) [Example 7m, 3-(5-methyl-4H-quinazolin-3-yl)piperidine-2,6-dione] | 89 | 0.05 (≈ 0.194 µM) | 202 | 
8 | O=C1CCC(N2C=Nc3cc(F)c(F)cc3C2)C(=O)N1 (stereo not drawn) [Example 7n, 3-(6,7-difluoro-4H-quinazolin-3-yl)piperidine-2,6-dione] | 84 | 0.042 (≈ 0.15 µM) | 263 | 
9 | O=C1CCC(N2C(=O)c3ccccc3C2=O)C(=O)N1 (stereo not drawn) [Thalidomide, thalidomide, reference compound] | 80 | 0.1 (≈ 0.387 µM) | 180 | 
